≈ marks a conversion by molar mass, not a printed value. Counter-ions that a name gives are not always drawn. Values belong to the molecule of their own block, whether it stands above or below them.
How the values were obtained:
[1] = Hygroscopicity (water uptake); format: physicochemical; settings: 25° C. up to 80% r.h.
[2] = Thermal properties by TGA and DSC; format: physicochemical
Source text: Form A's basic thermal properties were studied by thermogravimetric analysis (TGA) and differential scanning calorimetry (DSC) and are as follows:

[3] = Equilibration of free base forms with solvents, XRPD; format: physicochemical
Source text: The solid part was investigated by XRPD.

[4] = Intrinsic dissolution rate (rotating disk); format: physicochemical; settings: for Intrinsic dissolution rate: 37° C., 200 rpm
Description: Intrinsic Dissolution Rate (IDR): Dissolution rate measurements were performed at 37° C. using the rotating disk method (VanKell Instrument). A single rotation speed of 200 rpm was used. For IDR in 0.1N HCl, an 800 mL volume, and for IDR in water, a 200 mL volume were used. The solution was continuously pumped through a UV measuring cell and recycled to the dissolution vessel.
The measurements were carried out on a VanKel instrument using a Cary 100 photometer.

[5] = pH of 1% solution or suspension in water; format: physicochemical; settings: 1% in water
physchem [6] = settings: aqueous buffer solution, thermodynamic from solid
[7] = Compression with a hydraulic press, XRPD; format: physicochemical; settings: 5 minutes at 10 tons, room temperature
[8] = Wetting with granulating solvent, XRPD; format: physicochemical; settings: dried under vacuum
Source text: The material is vortexed between each addition. Then the material is dried under vacuum to <2% or less and evaluated for form and degree of crystallinity by XRPD or DSC.

[9] = Equilibration of hydrochloride forms A, B and C with solvents, XRPD; format: physicochemical
Source text: Then the solutions were filtered and the solid part investigated by XRPD.

[10] = Stability studies on storage; format: physicochemical; settings: storage at various relative humidities
[11] = Form conversion on exposure to solvent vapor, air, moisture or room conditions; format: physicochemical; settings: in the presence of ethanol
[12] = Solubility by gravimetric techniques at different temperatures, residue by XRPD
[13] = Equilibration of hydrochloride form B with solvents (approximate solubility by gravimetry, form by XRPD); settings: for Solubility: equilibrated at least 20 hours
physchem [14] = settings: tetrahydrofuran/water (1:1), 25 °C, aqueous with cosolvent or surfactant or cyclodextrin, thermodynamic from solid
[15] = thirteen solvents, one day, 25° C.
[16] = 0.1N HCl, 50° C., after 24 hours

hygroscopicity [1]: not hygroscopic
maximum water uptake [1]: less than 0.2%
Decomposition temperature [2]: >300 °C
form transition on equilibration ([3]; seven solvents (methanol, ethanol, 2-propanol, ethyl acetate, acetone, tetrahydrofuran, acetonitrile), at least 48 hours, room temperature): No form transition occurred
Intrinsic dissolution rate ([4]; Water, listed as Free base form B): 0.0013 mg min^−1cm^−2
Intrinsic dissolution rate ([4]; pH 1 (0.1 N HCl)): 0.17 mg min^−1cm^−2
pH of 1% solution or suspension in water ([5]; listed as Free base form B): 7.99
Solubility (physchem [6]; pH 2.8, aqueous buffer): 2.8 µg/mL (≈ 5.29 µM)
SMILES: Cc1cn(-c2cc(NC(=O)c3ccc(C)c(Nc4nccc(-c5cccnc5)n4)c3)cc(C(F)(F)F)c2)cn1 [Form B of the free base]
form transition on equilibration [3, 15]: No form transitions occurred with the exception of one trial of form B in water

change of crystalline modification (by XRPD) after compression [7]: no change of crystalline modification
XRPD results after granulation ([8]; granulating solvent Ethanol): No change
XRPD results after granulation ([8]; granulating solvent Water): No change
form transition on equilibration ([9]; 10 different solvents (ethanol, methanol, water, ethanol/water 99:1, methanol/water 99:1 and 99.3:0.7, methanol/HCl 0.1N, diethylether, hexane, tetrahydrofuran), one day, 25° C.): No form transitions occurred
Intrinsic dissolution rate ([4]; Water, listed as Hydrochloride monohydrate (form B)): 0.0024 mg min^−1cm^−2
Intrinsic Dissolution Rate value ([4]; dissolution medium HCl 0.0001 N): 0.0010 mg/min/cm^2
Intrinsic Dissolution Rate value ([4]; dissolution medium HCl 0.001 N): 0.0045 mg/min/cm^2
Intrinsic Dissolution Rate value ([4]; dissolution medium HCl 0.01 N): 0.0224 mg/min/cm^2
Intrinsic Dissolution Rate value ([4]; dissolution medium HCl 0.1 N): 0.1003 mg/min/cm^2
Intrinsic Dissolution Rate value ([4]; dissolution medium Water): 0.0001 mg/min/cm^2
Intrinsic dissolution rate ([4]; pH 1 (0.1 N HCl)): 0.17 mg min^−1cm^−2
pH of 1% solution or suspension in water ([5]; listed as Hydrochloride monohydrate (form B)): 2.53
form transition after storage [10]: No form transitions were observed
form conversion [11]: converts to form A
Solubility ([12]; 0.0001N HCl, 25° C., after 24 hours): 470 µg/mL
Solubility ([12]; 0.0001N HCl, 50° C., after 24 hours): 1320 µg/mL
Solubility ([12]; 0.001N HCl, 25° C., after 24 hours): 700 µg/mL
Solubility ([12]; 0.001N HCl, 50° C., after 24 hours): 1340 µg/mL
Solubility ([12]; 0.01N HCl, 25° C., after 24 hours): 690 µg/mL
Solubility ([12]; 0.01N HCl, 50° C., after 24 hours): 1440 µg/mL
Solubility ([12]; 0.1N HCl, 25° C., after 24 hours): 2360 µg/mL
Solubility [12, 16]: 6620 µg/mL
XRPD (form of the solid) [12, 16]: B + A
Solubility ([12]; Methanol, 25° C., after 24 hours): 14370 µg/mL
Solubility ([12]; Methanol, 50° C., after 24 hours): 52110 µg/mL
Solubility ([12]; Methanol/Water (95/5) v/v, 20° C., 10 minutes): 13640 µg/mL
Solubility ([12]; Methanol/Water (95/5) v/v, 20° C., 1 hour): 13430 µg/mL
Solubility ([12]; Methanol/Water (95/5) v/v, 20° C., 24 hours): 13010 µg/mL
Solubility ([12]; Methanol/Water (95/5) v/v, 45° C., 10 minutes): 34490 µg/mL
Solubility ([12]; Methanol/Water (95/5) v/v, 45° C., 1 hour): 38180 µg/mL
Solubility ([12]; Methanol/Water (95/5) v/v, 45° C., 24 hours): 41700 µg/mL
Solubility ([12]; Methanol/Water (95/5) v/v, −10° C., 10 minutes): 9420 µg/mL
Solubility ([12]; Methanol/Water (95/5) v/v, −10° C., 1 hour): 6650 µg/mL
Solubility ([12]; Methanol/Water (95/5) v/v, −10° C., 24 hours): 4850 µg/mL
Solubility ([12]; Methanol/Water (99.5/0.5) v/v, 20° C., 10 minutes): 12900 µg/mL
Solubility ([12]; Methanol/Water (99.5/0.5) v/v, 20° C., 1 hour): 13780 µg/mL
Solubility ([12]; Methanol/Water (99.5/0.5) v/v, 20° C., 24 hours): 12210 µg/mL
Solubility ([12]; Methanol/Water (99.5/0.5) v/v, 45° C., 10 minutes): 33290 µg/mL
Solubility ([12]; Methanol/Water (99.5/0.5) v/v, 45° C., 1 hour): 39390 µg/mL
Solubility ([12]; Methanol/Water (99.5/0.5) v/v, 45° C., 24 hours): 40400 µg/mL
Solubility ([12]; Methanol/Water (99.5/0.5) v/v, −10° C., 10 minutes): 7620 µg/mL
Solubility ([12]; Methanol/Water (99.5/0.5) v/v, −10° C., 1 hour): 5630 µg/mL
Solubility ([12]; Methanol/Water (99.5/0.5) v/v, −10° C., 24 hours): 4000 µg/mL
Solubility ([12]; Water, 25° C., after 24 hours): 1280 µg/mL
Solubility ([12]; Water, 50° C., after 24 hours): 1400 µg/mL
Solubility ([13]; Acetonitrile, 25° C.): 0.3 mg/g
Solubility ([13]; Acetonitrile, 50° C.): 2.1 mg/g
Solubility ([13]; Acetonitrile-water 1:1, 25° C.): 10.3 mg/g
Solubility ([13]; DMSO, 50° C.): >27.5 mg/g
Solubility ([13]; Ethanol (96%), 25° C.): 3.9 mg/g
Solubility ([13]; Ethanol (96%), 50° C.): 22.4 mg/g
Solubility ([13]; Ethanol, 50° C.): 26.5 mg/g
Solubility ([13]; Ethanol-water 1:1, 50° C.): 17.2 mg/g
Solubility ([13]; Ethyl acetate, 25° C.): 0.3 mg/g
Solubility ([13]; Ethyl acetate, 50° C.): 3.0 mg/g
Solubility ([13]; Methanol, 25° C.): 16.3 mg/g
Form (XRPD) after equilibration ([13]; Methanol, 50° C., at least 20 hours): Solvate (as wet cake - dries to B)
Solubility ([13]; Methanol, 50° C.): >27.5 mg/g
Solubility ([13]; Propan-2-ol, 25° C.): 1.5 mg/g
Solubility ([13]; Propan-2-ol, 50° C.): 4.8 mg/g
Solubility ([13]; Tetrahydrofuran, 25° C.): 5.8 mg/g
Solubility ([13]; Tetrahydrofuran-water 1:1, 25° C.): 12.2 mg/g
Solubility ([13]; Toluene, 25° C.): 1.3 mg/g
Solubility ([13]; Toluene, 50° C.): 5.6 mg/g
SMILES: Cc1cn(-c2cc(NC(=O)c3ccc(C)c(Nc4nccc(-c5cccnc5)n4)c3)cc(C(F)(F)F)c2)cn1 [Form B of the hydrochloride salt]
form transition on equilibration ([9]; ethanol, 50° C., 2 days): transitioned to a mixture of forms A and B

hygroscopicity [1]: slightly hygroscopic
maximum water uptake [1]: less than 2%
Decomposition temperature [2]: >300 °C
form transition on equilibration [3, 15]: No form transitions occurred
Solubility (physchem [6]; pH 1, simulated gastric fluid): > 200 µg/mL
Solubility (physchem [14]): 1780 µg/mL (≈ 3360 µM)
SMILES: Cc1cn(-c2cc(NC(=O)c3ccc(C)c(Nc4nccc(-c5cccnc5)n4)c3)cc(C(F)(F)F)c2)cn1 [Form A of the free base]

Reference: patent publication US8829015B2 (Novartis AG, priority 2005, dated 2014)
